Where two headings read alike, the source gives them in different places. Starred links: 1 amine or outer side, 2 acyl side, 3 side chain; linkers in the order of their positions; H or OH if unused. Positions of bridges follow the written chain, without caps; N, C: chain ends. Non-standard residues stand in square brackets, D forms with d. Residues, ends and D or L forms follow the SMILES beside them. Phe(4-CONH2) = NC(=O)c1ccc(C[C@H](N)C(=O)O)cc1; Morpholine(3S-CO) = O=C(O)[C@@H]1COCCN1; 2Nal = N[C@@H](Cc1ccc2ccccc2c1)C(=O)O; βAsp = O=C(O)[C@H](CC(=O)[*:2])N[*:1]; Ahp(2) = CCCCC[C@H](N)C(=O)O; NMeNle = CCCC[C@H](NC)C(=O)O; Tle = CC(C)(C)[C@H](N)C(=O)O; NHexGly = CCCCCCNCC(=O)O; Nle = CCCC[C@H](N)C(=O)O; Aun = NCCCCCCCCCCC(=O)O; AEEA = NCCOCCOCC(=O)O
Target: T1, mouse VISTA (mVISTA) (Mus musculus, UniProt Q9D659)
T1 construct: expressed in transfected cells; host or cells: Human embryonic kidney 293T cells
T1 sequence (Q9D659 33-308): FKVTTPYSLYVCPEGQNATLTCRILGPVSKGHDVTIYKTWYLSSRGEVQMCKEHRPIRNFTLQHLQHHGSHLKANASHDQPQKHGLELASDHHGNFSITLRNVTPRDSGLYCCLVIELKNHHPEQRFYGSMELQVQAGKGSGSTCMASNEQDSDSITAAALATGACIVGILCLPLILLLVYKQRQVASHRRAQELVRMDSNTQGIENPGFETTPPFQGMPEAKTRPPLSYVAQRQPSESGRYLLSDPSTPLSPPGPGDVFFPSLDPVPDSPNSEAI
Assay: Cell-Based Binding High-Content Assay For mVISTA (HC CBA mVISTA)
Method in brief: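 Competition of compound with a biotinylated peptide (final 2 nM, 30 min at RT) for binding to mVISTA on 293T cells, run under no-wash or wash (1 h compound preincubation then removal) formats. Readout by Alexa 647–streptavidin imaging on a high-content platform; four-parameter logistic fit gave IC50.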

[1] = 293T cells expressing mouse VISTA, competition with biotinylated peptide (2 nM), read-out: HC CBA mVISTA IC50

IC50 [1] [nM]	IC50 (read-out: HC CBA mVISTA IC50) [nM]	Compound	further results
		CCCCCCN1CC(=O)N[C@@H](Cc2ccc(O)cc2)C(=O)N[C@@H](CC(C)C)C(=O)N[C@@H](CC(N)=O)C(=O)N[C@@H](CCCNC(=N)N)C(=O)N(C)[C@@H](CCCC)C(=O)N[C@@H](CCCCC)C(=O)N2CCC[C@H]2C(=O)N[C@@H](C(C)(C)C)C(=O)N[C@@H](CC(=O)O)C(=O)N[C@H](C(=O)N[C@@H](CC(=O)NCCOCCOCC(=O)N[C@@H](CC(=O)O)C(=O)NCCOCCOCC(=O)NCCCCCCCCCCC(=O)O)C(=O)O)CSCC(=O)N[C@@H](Cc2ccc(C(N)=O)cc2)C(=O)N[C@@H](Cc2c[nH]c3ccccc23)C(=O)N[C@@H](CC(=O)O)C1=O [compound 2091] ({CH2CO}-[Phe(4-CONH2)]WD[NHexGly]YLNR[NMeNle][Ahp(2)]P[Tle]DC[βAsp][AEEA]D[AEEA][Aun]-OH; thioether N-14)	IC50 (cell-based binding high-content assay, mVISTA, read-out: HC CBA miPrISTA IC50): 14.6 nM
		CCCCCCN1CC(=O)N[C@@H](Cc2ccc(O)cc2)C(=O)N[C@@H](CC(C)C)C(=O)NCC(=O)N[C@@H](CCCNC(=N)N)C(=O)N[C@@H](CC(C)C)C(=O)N[C@@H](CCCCC)C(=O)N2CCC[C@H]2C(=O)N[C@@H](C(C)C)C(=O)N[C@@H](CO)C(=O)N[C@H](C(=O)NCC(N)=O)CSCC(=O)N[C@@H](Cc2ccc3ccccc3c2)C(=O)N[C@@H](Cc2ccc(O)cc2)C(=O)N[C@@H](CC(=O)O)C1=O [Ex 1275] ({CH2CO}-[2Nal]YD[NHexGly]YLGRL[Ahp(2)]PVSCG-NH2; thioether N-14)	IC50 (cell-based binding high-content assay, mVISTA, the 16th table, read-out: HC CBA mVISTA IC50): 35.9 nM
2.4		CCCCCCN1CC(=O)N[C@@H](Cc2ccc(O)cc2)C(=O)N[C@@H](CC(C)C)C(=O)N[C@@H](CC(N)=O)C(=O)N[C@@H](CCCNC(=N)N)C(=O)N[C@@H](CC(C)C)C(=O)N[C@@H](CCCCC)C(=O)N2CCC[C@H]2C(=O)N[C@@H](C(C)C)C(=O)N[C@@H](C(C)C)C(=O)N[C@H](C(=O)NCC(=O)O)CSCC(=O)N[C@@H](Cc2ccccc2)C(=O)N[C@@H](Cc2ccc(O)cc2)C(=O)N[C@@H](CC(=O)O)C1=O [Example 1066] ({CH2CO}-FYD[NHexGly]YLNRL[Ahp(2)]PVVCG-OH; thioether N-14)	
	18.6	CCCCCCN1CC(=O)N[C@@H](Cc2ccc(O)cc2)C(=O)N[C@@H](CCCC)C(=O)N[C@@H](CC(N)=O)C(=O)N[C@@H](CCCNC(=N)N)C(=O)N(C)[C@@H](CCCC)C(=O)N[C@@H](CCCCC)C(=O)N2CCOC[C@H]2C(=O)N[C@@H](C(C)(C)C)C(=O)N[C@@H](CO)C(=O)N[C@H](C(=O)N[C@@H](CC(=O)NCCOCCOCC(=O)NCCCCCCCCCCC(=O)O)C(=O)O)CSCC(=O)N[C@@H](Cc2ccccc2)C(=O)N[C@@H](Cc2c[nH]c3ccccc23)C(=O)N[C@@H](CC(=O)O)C1=O [Example 2192] ({CH2CO}-FWD[NHexGly]Y[Nle]NR[NMeNle][Ahp(2)][Morpholine(3S-CO)][Tle]SC[βAsp][AEEA][Aun]-OH; thioether N-14)	
	31.6	CCCCCCN1CC(=O)N[C@@H](Cc2ccc(O)cc2)C(=O)N[C@@H](CCCCC)C(=O)N[C@@H](CC(N)=O)C(=O)N[C@@H](CCCNC(=N)N)C(=O)N[C@@H](CC(C)C)C(=O)N[C@@H](CCCCC)C(=O)N2CCC[C@H]2C(=O)N[C@@H](C(C)C)C(=O)N[C@@H](CO)C(=O)N[C@H](C(=O)NCC(=O)O)CSCC(=O)N[C@@H](Cc2ccccc2)C(=O)N[C@@H](Cc2c[nH]c3ccccc23)C(=O)N[C@@H](CC(=O)O)C1=O [Example 1357] ({CH2CO}-FWD[NHexGly]Y[Ahp(2)]NRL[Ahp(2)]PVSCG-OH; thioether N-14)	
38.4		CCCCCCN1CC(=O)N[C@@H](Cc2ccc(O)cc2)C(=O)N[C@@H](CCCCC)C(=O)N[C@@H](CC(=O)O)C(=O)N[C@@H](CCCNC(=N)N)C(=O)N[C@@H](CC(C)C)C(=O)N[C@@H](CCCCC)C(=O)N2CCC[C@H]2C(=O)N[C@@H](C(C)C)C(=O)N[C@@H](CO)C(=O)N[C@H](C(=O)NCC(N)=O)CSCC(=O)N[C@@H](Cc2ccccc2)C(=O)N[C@@H](Cc2ccc(O)cc2)C(=O)N[C@@H](CC(=O)O)C1=O [Example 1038] ({CH2CO}-FYD[NHexGly]Y[Ahp(2)]DRL[Ahp(2)]PVSCG-NH2; thioether N-14)	

From US20240218022A1, “ANTI-VISTA MACROCYCLIC PEPTIDES AND COMPOSITIONS” (BRISTOL-MYERS SQUIBB COMPANY, priority 2022, published 2024)
